Data on 48 compounds can be found in PubChem BioAssay AID743267 (Broad Institute, 2014).

The assay deals with human bronchial epithelial cells, CFTR corrector, plate reader. In words: rescue of ΔF508 CFTR function, airway epithelium – human bronchial epithelial cells, plate reader, cherry-pick, two tests, dose response (AID 743267). Conditions: measured here: test 2 replicate run.

By AC50 is commonly meant the concentration at which the activity in the assay is half-maximal. On to `Clc1ccc(Nc2ccc3ccccc3n2)cc1`, for which the AC50 is 8.45 µM.

In the case of `O=C(NCCC1CCCCN1S(=O)(=O)c1cccs1)C(=O)Nc1ccc(F)cc1F` (stereo not drawn), the AC50 was found to be 8.39 µM.

Compound `COc1ccc(C2=NOC(C(=O)NCc3ccc(F)cc3)C2)cc1OC` (stereo not drawn) gave an AC50 of 1.06 µM.

Consider `O=C1NC(=Nc2ccc(O)cc2)S/C1=C/c1ccco1`, for which the AC50 amounted to 4.91 µM.

For `COc1ccc(C2c3ccc4ccccc4c3Oc3ncn(CCCO)c(=N)c32)cc1OC` (stereo not drawn), the AC50 was 25.5 µM.

In turn, `O=C1CCC(CCc2nc3ccccc3[nH]2)(c2ccccc2)C(=O)N1` (stereo not drawn) registered an AC50 of 36.3 µM.

Consider `Nc1sc(-c2ccccc2)cc1-c1n[nH]c(=S)n1C1CCCCC1`, for which the AC50 was 2.45 µM.

In the case of `COCCCN=C1NN=C(c2cc(C)n(Cc3ccccc3Cl)c2C)CS1`, the AC50 was determined as 3.3 µM.

In turn, `COc1cccc2c1C(=O)c1c(O)c3c(c(O)c1C2=O)CC(O)(C(C)=O)CC3OC1CC(N(C)C)C(O)C(C)O1` (stereo not drawn) had an AC50 of 14.8 µM.

Regarding `CCOc1ccc(C)cc1S(=O)(=O)n1cnc2ccccc21`, the AC50 worked out at 8.08 µM.

Take `COc1cccc(Sc2ccccc2/C=N/NC(N)=O)c1`: the AC50 was found to be 41.6 µM.

On to `Cc1cccc(N2CCN(Cc3cn(C)nc3-c3ccccc3F)CC2)n1`, for which the AC50 is 2.43 µM.

Turning to `CC(=O)c1cccc(Nc2c3c(nc4ccccc24)CCC3)c1`, the AC50 was 2.69 µM.

`COc1ccc(OC)c(C(=O)Cn2nnc(-c3ccc(N4CCOCC4)cc3)n2)c1` displayed an AC50 of 31.1 µM.

Take `Nc1ccn([C@@H]2O[C@H](C(=O)NCC(F)(F)F)[C@@H](O)[C@H]2O)c(=O)n1`: the AC50 was above 50 µM.

As to `COC(=O)C1=CN(c2ccc3c(c2)OCO3)C(N)=C(C#N)C1c1cccc(F)c1` (stereo not drawn), the AC50 came out at 1.55 µM.

Compound `CCOc1cc(/C=N/NC(=O)N/N=C/c2ccc(O)c(OCC)c2)ccc1O` returned an AC50 of 4.92 µM.

In turn, `Cc1ccc(-c2cccc(CN3CCN(C(C)C)C(CCO)C3)c2)o1` (stereo not drawn) showed an AC50 above 50 µM.

Consider `O=C(NCCOc1ccccc1F)c1cc([N+](=O)[O-])ccc1N1CCOCC1`, for which the AC50 is 5.95 µM.

In the case of `Cc1cc(NC(=O)CN2C(=O)NC3(CCCCCC3)C2=O)ccc1Br`, the AC50 is 8.4 µM.

`CCOC(=O)N1CCC(NC(=O)c2ccc3c(c2)N=C(C)c2c(C)ccc(C)c2S3)CC1` displayed a half-maximal activity concentration (AC50) of 1.67 µM.

Consider `Clc1cccc(-c2ccc(C=Nc3ccc(N4CCOCC4)cc3)o2)c1Cl`, for which the AC50 is above 50 µM.

For the compound `Cn1cccc1/C=C1\SC(=Nc2ccc(O)cc2)NC1=O`, the AC50 came to 0.315 µM.

The compound `COc1ccc(C(=O)c2ccc(N(C)C)cc2)c(OC)c1` came in with an AC50 of 3.82 µM.

For the compound `CCCCNC(=O)C(=O)Nc1ccc2c(c1)N(S(=O)(=O)c1cccs1)CCC2`, the AC50 came out at 1.89 µM.

Compound `CCCn1c(CN2CCN(C(=O)OCC)CC2)nc2cc(NC(=O)CC)ccc21` returned an AC50 of 4.34 µM.

In turn, `CN(C)CCNc1ccc2ncn3c4ccc(O)cc4c(=O)c1c23` registered an AC50 of 2.03 µM.

The compound `CCOC(=O)c1c(C)[nH]c(C(=O)N/N=C/c2ccc(OC)c(OC)c2)c1C` showed an AC50 of 2.93 µM.

`Cc1ccccc1-c1nc(CS(=O)(=O)CC(=O)NCc2ccccc2)c(C)o1` showed an AC50 above 50 µM.

`O=[N+]([O-])c1ccc(Sc2cccc[n+]2[O-])c2nonc12` yielded an AC50 of 12.7 µM.

Turning to `O=c1[nH]c(/C=C/c2ccccc2F)nc2ccccc12`, the AC50 was found to be 2.69 µM.

With `COc1cc(Nc2c3c(nc4ccccc24)CCC3)cc(OC)c1OC`, the AC50 was 1.97 µM.

`COc1cc(OC)cc(C(=O)N[C@H](C(=O)Nc2nc3ccccc3[nH]2)C(C)C)c1` gave an AC50 of 2.34 µM.

Take `Cc1cccc(Nc2nc(N)nc(-c3oc4ccccc4c3C)n2)c1`: the AC50 is 6.65 µM.

For the compound `CCN(CC(=O)Nc1c(F)cccc1F)C(=O)C1CC1`, the AC50 came out at 33.1 µM.

In turn, `CC(=O)Nc1ccc(Nc2c3ccccc3nc3ccccc23)cc1` had an AC50 of 4.6 µM.

In turn, `COc1cc(/C=C2/SC(=Nc3ccc(O)cc3)NC2=O)cc(OC)c1O` yielded an AC50 of 8.92 µM.

As for `CCCCC(=NCCc1c(C)[nH]c2ccccc12)C1=C(O)CC(c2ccccc2)CC1=O` (stereo not drawn), the AC50 worked out at 3.92 µM.

Turning to `O=C(Nc1cccc(C2=NCCN2)c1)Nc1cccc(C2=NCCN2)c1`, the AC50 amounted to 20.7 µM.

Compound `CCCC(=O)Nc1nc2ccc(NC(=O)c3c(F)c(F)c(OC)c(F)c3F)cc2s1` yielded an AC50 of 1.13 µM.

Take `COc1ccc([N+](=O)[O-])cc1Nc1c2ccccc2nc2ccccc12`: the AC50 was 2.62 µM.

As to `COc1cc(NC(=O)c2csc(N)n2)cc(C(=O)Nc2cccc(C(F)(F)F)c2)c1`, the AC50 amounted to 16 µM.

`COc1ccc(C(=O)OCC(=O)N2C(C)CCCC2C)cc1S(=O)(=O)N1CCOCC1` (stereo not drawn): the AC50 stood at 29.6 µM.

`Cn1cccc1/C=C1\SC(=Nc2cccc(O)c2)NC1=O` displayed an AC50 of 13.5 µM.

Compound `CC(=O)Nc1cccc(-c2ccnc3c2CC(C)(C(=O)Nc2ccc4c(c2)OCO4)O3)c1` (stereo not drawn) came in with an AC50 of 0.973 µM.

Regarding `COC(=O)c1[nH]c2c(c1C)C(=O)CC(c1cccc(OC)c1)C2` (stereo not drawn), the AC50 turned out to be 0.965 µM.

`COc1ccccc1/C=C/C=N/NC(=O)CCn1cnc2ccccc21` came in with a half-maximal activity concentration (AC50) of 8.01 µM.

Compound `Cc1cc(C(=O)N2CC=C(c3ccccc3)CC2)c2ccccc2n1` gave an AC50 of 0.66 µM.
